Test: Forward extraction of acid from salt-containing aqueous feed into methyl-isobutylketone and back extraction into water
Type: physicochemical
Settings: 20° C.; for DBE (distribution ratio in back extraction, [acid]organic/[acid]water): MIBK organic phase / pure water; for [acid] aqueous fraction after back extraction: feed with 15 wt. % MgCl2 (acid in feed per Table 1.1), back extraction into pure water; for [acid] aqueous fraction after back extraction / DFE (distribution ratio in forward extraction, [acid]organic/[acid]water) / concentration ratio (acid concentration in product / acid concentration in feed): MIBK; for DFE (distribution ratio in forward extraction, [acid]organic/[acid]water) / concentration ratio (acid concentration in product / acid concentration in feed): feed with 15 wt. % MgCl2
Excerpt: Forward extraction and back extraction as used in the method of the invention are based on the difference in solubility of the carboxylic acid in water and the organic solvent at different temperatures. The solubility of a compound in one solvent relative to another solvent can be expressed in terms of the distribution ratio (DR). […] The distribution ratio may be defined as the ratio of the carboxylic acid concentration dissolved in the organic phase ([carboxylic acid]organic) over the concentration of the carboxylic acid dissolved in water ([carboxylic acid]water), provided that the two phases are in equilibrium with each other: DR=[carboxylic acid]organic/[carboxylic acid]water (1)
The general procedure is set up to mimic a continuous extraction process.
A feed solution was prepared comprising acid and salt in the amounts stipulated in the table. The solutions were stirred overnight.
1000 g of this feed solution was mixed with approximately 100 g of methyl-isobutylketone as solvent and stirred at 20° C. for minimum of 15 minutes. The mixture was transferred to a separation funnel where phases were separated. Samples of both phases were taken for analysis. Then approximately 100 g of organic phase was mixed with 10 g of pure water and stirred for minimum of 15 min at 20° C. Subsequently the whole mixture is again transferred to the separation funnel, phases are left to separate and samples of both phases are taken. Samples were analysed on acid content.
These tables also give the concentration ratio, which is the ratio between the acid concentration in the product and the acid concentration in the feed.
The composition of the starting solution and the acid concentration in the products is in Table 2.1 below.

Compound | DBE (distribution ratio in back extraction, [acid]organic/[acid]water) | [acid] aqueous fraction after back extraction | DFE (distribution ratio in forward extraction, [acid]organic/[acid]water) | concentration ratio (acid concentration in product / acid concentration in feed)
O=C(O)/C=C/C(=O)O [Fumaric acid, fumaric acid] | 0.24 | 0.21 wt. % | 1.75 | 1.8
C=C(CC(=O)O)C(=O)O [Itaconic acid, itaconic acid] | 1.07 | 2.8 wt. % | 2.83 | 1.9

— patent US10683520B2, “Polycarboxylic acid extraction” (PURAC BIOCHEM BV, priority 2011, dated 2020)
